Test results reported in article PMC9681820, “A PDE10A inhibitor CPL500036 is a novel agent modulating striatal function devoid of most neuroleptic side-effects” (Frontiers in Pharmacology, 2022).
Read-outs that look alike come from different tables or passages of the source.

How the values were obtained:
[1] = Plasma protein binding (equilibrium dialysis); format: in vitro ADME, rats
Procedure: The plasma protein binding study was carried out by Eurofins (Poitiers, France) according to the service-provider’s protocol. Briefly, the protein matrix was spiked with the test compound at 10 μM (n = 2) with a final DMSO concentration of 1%. The dialysate compartment was loaded with phosphate buffered saline (PBS, pH 7.4) and the sample side was loaded with equal volume of the spiked protein matrix. The dialysis plate was incubated at 37°C for 4 h. After the incubation, samples were taken from each compartment, diluted with the phosphate buffer followed by addition of acetonitrile and centrifugation. The supernatants were then used for HPLC-MS/MS analysis. Acebutolol, quinidine, and warfarin were tested as reference.

Beagle dogs = experiment: In vivo cardiovascular safety, telemetry; conditions: 1.5 mg/kg, 10 mg/kg or 30 mg/kg, p.o., n = 4, free-base form
Description: Four male Beagle dogs who had been implanted previously with telemetry transmitter devices (Data Sciences, Saint Paul, MN, United States) were used. The number of animals corresponds to the standard approach used for such studies ([Smith et al., 2002]; [Authier et al., 2020]) and includes the accepted study sensitivity and ethics for use of nonrodent species ([ICH S7A Safety Pharmacology Studies for Human Pharmaceuticals, 2001]; [Smith et al., 2002]; [Authier et al., 2020]). The study consisted of four acquisition sessions using a crossover design with dosing intervals of ≥ 48 h. In each experimental session, each dog received (via oral gavage) a different treatment: either vehicle or CPL500036 (1.5 mg/kg, 10 mg/kg or 30 mg/kg). Cardiovascular safety was assessed on arterial blood pressure (systolic, diastolic and mean), heart rate (HR) and electrocardiography (RR interval, PR interval, QRS duration, uncorrected QT and corrected QT (QTc) for heart rate using van de Water correction) acquired continuously for ≥ 2 h before dosing, and for ≥ 24 h post-dose. All parameters were evaluated before and at 13-time points after treatment (15 min, 30 min as well as 1 h, 2 h, 3 h, 4 h, 5 h, 6 h, 8 h,12 h, 16 h, 20 h, and 24 h after dosing).

[2] = biological target: T1, muscarinic acetylcholine receptor type 2 (Homo sapiens, UniProt P08172); experiment: SafetyScreen44 radioligand binding (antagonistic radioligand assay); conditions: read-out: % Inh (% inhibition of control specific binding)
T1 construct: purchased Eurofins Cerep (SafetyScreen44)
T1 sequence (P08172 whole entry): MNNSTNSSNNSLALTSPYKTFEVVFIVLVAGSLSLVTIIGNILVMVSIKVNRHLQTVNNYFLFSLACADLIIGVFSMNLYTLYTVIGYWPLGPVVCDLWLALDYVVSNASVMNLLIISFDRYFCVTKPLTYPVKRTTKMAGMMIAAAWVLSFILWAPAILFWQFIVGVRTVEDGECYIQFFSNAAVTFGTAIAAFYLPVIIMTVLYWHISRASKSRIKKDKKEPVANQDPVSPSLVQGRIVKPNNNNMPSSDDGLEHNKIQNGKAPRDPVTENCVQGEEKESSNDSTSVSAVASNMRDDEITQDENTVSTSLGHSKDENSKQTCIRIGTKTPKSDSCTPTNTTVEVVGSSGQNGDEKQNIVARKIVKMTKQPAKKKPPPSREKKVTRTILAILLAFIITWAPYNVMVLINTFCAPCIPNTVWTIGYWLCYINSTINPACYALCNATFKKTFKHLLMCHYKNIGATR
Procedure: (§1) The SafetyScreen44® assay was carried out by Eurofins (Poitiers, France) according to the service-provider’s protocol. CPL500036 (1 µM) was tested against a panel of […] potential off-targets proteins, including G protein-coupled receptors (GPCRs), transporters, ion channels, nuclear receptors kinases and other non-kinase enzymes, by use of a set of the binding assays.
(§2) Binding of CPL500036 was calculated as the percent binding inhibition of a radioactively labeled ligand specific for each target. Enzyme inhibition of CPL500036 was calculated as the percent inhibition of the activity of the control enzyme. “No interaction” was denoted if inhibition ≤ 25% of specific binding of the control. Determination of muscarinic acetylcholine receptor (M2) activity induced by CPL500036 (antagonism and agonism) was undertaken in human recombinant CHO cells by measurement of the intracellular cAMP level according to the service-provider’s protocol. IC50 (concentration causing a half-maximal inhibition of specific binding of the control) or EC50 (concentration causing a half-maximal response of specific binding of the control) and the Hill coefficient were determined by non-linear regression analysis of the competition curves generated with mean replicate values using Hill-equation curve fitting with software developed at Cerep (Celle-Lévescault, France).

Acetylcholinesterase = biological target: T2, Acetylcholinesterase (Homo sapiens, UniProt P22303); experiment: SafetyScreen44 enzyme inhibition; format: biochemical; conditions: read-out: % Inh (percent inhibition of the activity of the control enzyme)
T2 construct: purchased Eurofins Cerep (SafetyScreen44)
T2 sequence (P22303 32-614): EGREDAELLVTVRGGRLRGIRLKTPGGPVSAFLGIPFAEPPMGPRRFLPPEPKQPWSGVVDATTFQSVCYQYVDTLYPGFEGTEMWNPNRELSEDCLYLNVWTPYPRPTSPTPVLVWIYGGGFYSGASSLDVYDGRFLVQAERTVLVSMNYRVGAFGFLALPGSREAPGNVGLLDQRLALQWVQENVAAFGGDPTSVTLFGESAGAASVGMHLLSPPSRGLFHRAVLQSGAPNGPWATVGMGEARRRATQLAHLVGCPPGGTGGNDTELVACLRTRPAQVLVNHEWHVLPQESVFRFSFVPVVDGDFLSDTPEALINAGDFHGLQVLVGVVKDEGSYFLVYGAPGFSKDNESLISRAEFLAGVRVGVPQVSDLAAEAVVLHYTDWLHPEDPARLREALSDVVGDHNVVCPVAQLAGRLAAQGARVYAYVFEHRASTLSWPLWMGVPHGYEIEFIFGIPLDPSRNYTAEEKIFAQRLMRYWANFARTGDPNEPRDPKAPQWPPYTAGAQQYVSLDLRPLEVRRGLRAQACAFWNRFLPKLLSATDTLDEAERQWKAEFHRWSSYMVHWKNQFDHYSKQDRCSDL
Procedure: as §1, §2

phosphodiesterase 4 = biological target: T3, phosphodiesterase 4 (Homo sapiens, UniProt Q08499); experiment: SafetyScreen44 enzyme inhibition; format: biochemical; conditions: read-out: % Inh (percent inhibition of the activity of the control enzyme)
T3 construct: purchased Eurofins Cerep (SafetyScreen44)
T3 sequence (Q08499 whole entry): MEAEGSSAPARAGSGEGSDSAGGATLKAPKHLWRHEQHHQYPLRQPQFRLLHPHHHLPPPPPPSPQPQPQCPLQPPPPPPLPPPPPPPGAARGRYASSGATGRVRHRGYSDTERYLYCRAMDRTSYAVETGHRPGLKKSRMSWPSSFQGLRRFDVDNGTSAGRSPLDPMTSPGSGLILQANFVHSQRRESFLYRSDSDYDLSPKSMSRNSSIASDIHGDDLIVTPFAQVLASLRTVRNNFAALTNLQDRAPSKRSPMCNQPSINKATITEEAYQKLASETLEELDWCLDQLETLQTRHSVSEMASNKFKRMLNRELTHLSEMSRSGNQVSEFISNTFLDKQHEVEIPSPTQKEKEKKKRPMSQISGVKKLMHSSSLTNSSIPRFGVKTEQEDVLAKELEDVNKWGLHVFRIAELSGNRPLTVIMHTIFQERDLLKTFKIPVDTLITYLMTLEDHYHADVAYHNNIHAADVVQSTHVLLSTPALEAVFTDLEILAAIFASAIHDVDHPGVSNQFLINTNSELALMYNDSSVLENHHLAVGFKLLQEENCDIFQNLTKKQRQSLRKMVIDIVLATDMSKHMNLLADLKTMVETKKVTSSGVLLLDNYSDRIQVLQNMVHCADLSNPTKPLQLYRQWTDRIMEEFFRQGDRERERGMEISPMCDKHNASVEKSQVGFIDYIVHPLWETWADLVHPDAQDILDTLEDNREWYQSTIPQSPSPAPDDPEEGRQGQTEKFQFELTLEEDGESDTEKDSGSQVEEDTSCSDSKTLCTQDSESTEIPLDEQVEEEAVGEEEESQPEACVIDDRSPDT
Procedure: as §1, §2

[3] = biological target: T4, lymphocyte-specific protein tyrosine kinase (Homo sapiens, UniProt P06239); experiment: SafetyScreen44 enzyme inhibition; format: biochemical; conditions: read-out: % Inh (percent inhibition of the activity of the control enzyme)
T4 construct: purchased Eurofins Cerep (SafetyScreen44)
Procedure: as §1, §2

Cyclooxygenase 1 = biological target: T5, Cyclooxygenase 1 (Homo sapiens, UniProt P23219); experiment: SafetyScreen44 enzyme inhibition; format: biochemical; conditions: read-out: % Inh (percent inhibition of the activity of the control enzyme)
T5 construct: purchased Eurofins Cerep (SafetyScreen44)
T5 sequence (P23219 24-599): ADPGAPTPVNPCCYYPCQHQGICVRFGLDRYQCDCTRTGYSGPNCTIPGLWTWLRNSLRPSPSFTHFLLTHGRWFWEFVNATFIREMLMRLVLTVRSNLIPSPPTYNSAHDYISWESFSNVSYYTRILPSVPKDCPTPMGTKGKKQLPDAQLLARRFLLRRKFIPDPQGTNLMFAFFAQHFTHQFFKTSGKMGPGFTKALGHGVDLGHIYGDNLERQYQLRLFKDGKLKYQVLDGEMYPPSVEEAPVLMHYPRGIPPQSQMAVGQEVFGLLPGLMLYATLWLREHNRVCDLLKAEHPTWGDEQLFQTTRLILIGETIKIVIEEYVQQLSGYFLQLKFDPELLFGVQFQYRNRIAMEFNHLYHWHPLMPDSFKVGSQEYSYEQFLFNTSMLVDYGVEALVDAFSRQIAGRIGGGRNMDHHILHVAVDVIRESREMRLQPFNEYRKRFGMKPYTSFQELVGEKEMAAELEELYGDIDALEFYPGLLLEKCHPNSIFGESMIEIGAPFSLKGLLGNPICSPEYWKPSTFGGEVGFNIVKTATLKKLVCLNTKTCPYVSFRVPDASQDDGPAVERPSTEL
Procedure: as §1, §2

phosphodiesterase 3A = biological target: T6, phosphodiesterase 3A (Homo sapiens, UniProt Q14432); experiment: SafetyScreen44 enzyme inhibition; format: biochemical; conditions: read-out: % Inh (percent inhibition of the activity of the control enzyme)
T6 construct: purchased Eurofins Cerep (SafetyScreen44)
T6 sequence (Q14432 whole entry): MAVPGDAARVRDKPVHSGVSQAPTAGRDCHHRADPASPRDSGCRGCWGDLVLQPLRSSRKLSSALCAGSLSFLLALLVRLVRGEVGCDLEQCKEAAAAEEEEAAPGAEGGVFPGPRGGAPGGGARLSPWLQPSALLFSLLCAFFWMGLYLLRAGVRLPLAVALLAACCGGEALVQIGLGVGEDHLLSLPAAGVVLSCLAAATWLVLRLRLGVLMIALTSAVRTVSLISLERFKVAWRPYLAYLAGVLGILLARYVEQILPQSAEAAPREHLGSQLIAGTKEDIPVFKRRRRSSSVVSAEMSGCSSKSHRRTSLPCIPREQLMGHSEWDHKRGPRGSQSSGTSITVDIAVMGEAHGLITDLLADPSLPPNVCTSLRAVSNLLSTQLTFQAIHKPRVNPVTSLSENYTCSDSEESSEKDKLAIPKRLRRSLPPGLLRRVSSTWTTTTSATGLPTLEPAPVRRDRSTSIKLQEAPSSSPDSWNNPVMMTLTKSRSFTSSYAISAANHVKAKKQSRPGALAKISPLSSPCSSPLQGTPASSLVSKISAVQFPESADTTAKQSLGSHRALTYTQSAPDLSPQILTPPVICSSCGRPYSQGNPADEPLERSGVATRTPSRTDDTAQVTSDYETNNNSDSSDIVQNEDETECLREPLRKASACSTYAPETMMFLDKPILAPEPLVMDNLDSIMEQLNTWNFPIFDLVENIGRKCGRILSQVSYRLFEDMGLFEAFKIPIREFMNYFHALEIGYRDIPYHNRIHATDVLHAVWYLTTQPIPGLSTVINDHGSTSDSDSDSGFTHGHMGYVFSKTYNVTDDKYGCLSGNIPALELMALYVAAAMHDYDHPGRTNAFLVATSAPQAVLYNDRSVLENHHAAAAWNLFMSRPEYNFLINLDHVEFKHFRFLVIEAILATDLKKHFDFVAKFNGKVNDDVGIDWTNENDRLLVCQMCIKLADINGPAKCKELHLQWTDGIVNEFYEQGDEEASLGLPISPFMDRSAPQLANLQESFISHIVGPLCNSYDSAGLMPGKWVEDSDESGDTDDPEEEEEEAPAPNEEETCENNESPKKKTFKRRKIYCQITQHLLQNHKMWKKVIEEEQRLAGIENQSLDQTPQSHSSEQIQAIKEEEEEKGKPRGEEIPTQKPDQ
Procedure: as §1, §2

Cyclooxygenase 2 = biological target: T7, Cyclooxygenase 2 (Homo sapiens, UniProt P35354); experiment: SafetyScreen44 enzyme inhibition; format: biochemical; conditions: read-out: % Inh (percent inhibition of the activity of the control enzyme)
T7 construct: purchased Eurofins Cerep (SafetyScreen44)
T7 sequence (P35354 18-604): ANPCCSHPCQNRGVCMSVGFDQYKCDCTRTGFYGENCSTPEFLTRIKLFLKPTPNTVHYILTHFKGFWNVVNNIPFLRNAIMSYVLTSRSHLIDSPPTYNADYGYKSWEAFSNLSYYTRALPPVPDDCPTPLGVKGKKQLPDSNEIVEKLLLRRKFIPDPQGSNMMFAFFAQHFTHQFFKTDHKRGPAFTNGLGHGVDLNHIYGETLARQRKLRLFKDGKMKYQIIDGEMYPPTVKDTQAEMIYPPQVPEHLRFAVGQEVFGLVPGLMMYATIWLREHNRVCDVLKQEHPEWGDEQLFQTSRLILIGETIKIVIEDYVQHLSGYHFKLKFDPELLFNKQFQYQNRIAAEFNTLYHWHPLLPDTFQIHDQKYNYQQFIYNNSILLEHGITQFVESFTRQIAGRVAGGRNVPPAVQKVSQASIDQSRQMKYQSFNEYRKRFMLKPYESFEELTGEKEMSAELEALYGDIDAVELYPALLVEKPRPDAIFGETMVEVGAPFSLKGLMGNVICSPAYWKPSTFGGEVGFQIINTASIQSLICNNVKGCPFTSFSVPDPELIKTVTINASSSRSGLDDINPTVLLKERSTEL
Procedure: as §1, §2

serotonin receptor 2A = biological target: T8, serotonin receptor 2A (Homo sapiens, UniProt P28223); experiment: SafetyScreen44 radioligand binding; conditions: agonist radioligand, read-out: % Inh (% inhibition of control specific binding)
T8 construct: purchased Eurofins Cerep (SafetyScreen44)
T8 sequence (P28223 whole entry): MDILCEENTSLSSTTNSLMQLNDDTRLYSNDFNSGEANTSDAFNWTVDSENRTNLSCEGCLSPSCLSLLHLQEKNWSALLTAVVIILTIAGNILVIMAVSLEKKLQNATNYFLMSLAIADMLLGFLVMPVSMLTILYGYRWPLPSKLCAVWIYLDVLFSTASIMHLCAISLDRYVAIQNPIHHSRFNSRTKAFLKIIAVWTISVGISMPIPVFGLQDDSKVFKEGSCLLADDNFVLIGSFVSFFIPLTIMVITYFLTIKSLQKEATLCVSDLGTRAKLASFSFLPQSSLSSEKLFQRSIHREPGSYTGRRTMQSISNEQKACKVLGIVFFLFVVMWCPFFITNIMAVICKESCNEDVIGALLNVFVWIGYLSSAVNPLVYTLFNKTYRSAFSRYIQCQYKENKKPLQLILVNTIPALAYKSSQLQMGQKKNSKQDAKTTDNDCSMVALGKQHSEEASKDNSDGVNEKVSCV
Procedure: as §1, §2

[4] = test system: Salmonella typhimurium TA100; conditions: CPL500036 5000µg/plate, n=3
MTT cytotoxicity assay = format: cell-based; conditions: human, n = 3
Procedure: The cytotoxicity of CPL500036 was evaluated in human non-small-cell lung cancer (NCI-H1299, ATCC® CRL-5803™), human hepatocellular carcinoma (Hep G2 [HEPG2], ATCC® HB-8065™) and human neuroblastoma (SH-SY5Y, ECACC, 94030304) cells using the 3-(4,5-dimethylthiazol-2-yl)-2,5-diphenyltetrazolium bromide (MTT) assay (Invitrogen, Carlsbad, CA, United States). Cells were seeded in an appropriate complete growth medium (following manufacturer recommendations) onto 96-well plates. After overnight incubation (37°C, 5% CO2) the medium was replaced with fresh medium (100 μl/well) containing the desired concentration of CPL500036 (8 nM–60 μM, diluent factor = 3), positive control or vehicle control (1% dimethyl sulfoxide (DMSO)) followed by incubation for 72 h (37°C, 5% CO2). Then, 25 μl of filtered (filter size = 0.22 μm) MTT solution (12 mM) in phosphate-buffered saline (PBS) was added to each well, including blank control (medium without cells) followed by incubation for 2 h (37°C, 5% CO2). After that, formazan crystals were dissolved in DMSO (100 μl/well). The absorbance was measured at 540 nm (A540, substrate wavelength) and 690 nm (A690, reference wavelength) using an automatic microplate reader (Multiskan™ GO; ThermoFisher Scientific). The metabolic activity of cells in the presence of vehicle control (1% DMSO) was considered to be 100%, and we calculated the difference between A540 and A690. IC50 was calculated using Prism 7.05.

[5] = With metabolic activation (+S9 mix), 2AA 2µg/plate
[6] = Without metabolic activation (-S9 mix), SAZ 2µg/plate

Question: Which “free concentration of CPL500036 in rats” value ([1]; based on the plasma protein binding and pharmacokinetic data) does the source give for `Cc1ncc(C)n2nc(-c3ccn4cc(-c5ccccc5)nc4n3)nc12` [CPL500036, 7-[5,8-Dimethyl-(1,2,4)triazolo (1,5-a)pyrazin-2-yl]-2-phenylimidazo (1,2-a) pyrimidine] here?
Answer: The value was 5%.

Question: And the fraction unbound at 4 h, 10 µM ([1]; rat, plasma, pH 7.4, rats, 10 μM, 37°C, 4 h, n = 2)?
Answer: The fraction unbound at 4 h, 10 µM was 0.08.

Question: What about the “electrocardiography parameters (particularly QTcv and QRS duration)” value (Beagle dogs) of the same compound?
Answer: Its value is “Noticeable alterations in any of the electrocardiography parameters analyzed (particularly QTcv and QRS duration) were not observed”.

Question: What about the heart rate (Beagle dogs) of the same compound?
Answer: The heart rate was “significant differences were not seen compared with the vehicle control group”.

Question: What about the “systolic, diastolic and mean blood pressures” value (Beagle dogs) of the same compound?
Answer: The value was “Remarkable variations in systolic, diastolic and mean blood pressures were not recorded”.

Question: What about the inhibition at 1 µM [2] of the same compound?
Answer: The inhibition at 1 µM was -91.2%.

Question: What about the inhibition at 1 µM (Acetylcholinesterase) of the same compound?
Answer: The inhibition at 1 µM was 13.7%.

Question: And the inhibition at 1 µM (phosphodiesterase 4)?
Answer: Its inhibition at 1 µM is 0.8%.

Question: And the inhibition at 1 µM [3]?
Answer: The inhibition at 1 µM was -1.9%.

Question: And the inhibition at 1 µM (Cyclooxygenase 1)?
Answer: The inhibition at 1 µM was -9.5%.

Question: And the inhibition at 1 µM (phosphodiesterase 3A)?
Answer: Its inhibition at 1 µM is -15.2%.

Question: What about the inhibition at 1 µM (Cyclooxygenase 2) of the same compound?
Answer: Its inhibition at 1 µM is -0.4%.

Question: What about the inhibition at 1 µM (serotonin receptor 2A) of the same compound?
Answer: Its inhibition at 1 µM is -8.6%.

Question: What about the Mutation rate [4, 5] of the same compound?
Answer: The Mutation rate was 0.82.

Question: What about the “Revertants Mean±SD” value [4, 5] of the same compound?
Answer: The value was 62.3±9.02.

Question: And the Mutation rate [4, 6]?
Answer: Its Mutation rate is 1.02.

Question: And the “Revertants Mean±SD” value [4, 6]?
Answer: Its value is 66.3±1.08.

Question: What about the IC50 at 72 h (MTT cytotoxicity assay; HepG2 cells, HepG2, 72 h) of the same compound?
Answer: The IC50 at 72 h was > 60 µM.

Question: And the IC50 at 72 h (MTT cytotoxicity assay; NCI-H1299 cells, H1299, 72 h)?
Answer: Its IC50 at 72 h is > 60 µM.

Question: What about the IC50 at 72 h (MTT cytotoxicity assay; SH-SY5Y cells) of the same compound?
Answer: Its IC50 at 72 h is > 60 µM.
